Laboratory results taken from ChEMBL document CHEMBL5029173, “Differential BET Bromodomain Inhibition by Dihydropteridinone and Pyrimidodiazepinone Kinase Inhibitors” (J Med Chem, 2021).
The source made the active and inactive calls. The rule behind the calls is not given here.

Tests used:
MM1.S = test: Inhibition of cell growth in human MM1.S cells incubated for 72 hrs by CellTiter-blue reagent based assay; assay type: functional
[1] = target: T1, Bromodomain-containing protein 4 (Homo sapiens, UniProt O60885); test: Binding affinity to recombinant human N-terminal hexaHis-tagged BRD4 expressed in Escherichia coli BL21 (DE3) cells by ITC analysis
[2] = target: T1, Bromodomain-containing protein 4
Description: Binding affinity to recombinant human N-terminal hexaHis-tagged BRD4 expressed in Escherichia coli BL21 (DE3) cells assessed as change in melting temperature by DSF assay

[3] = target: T2, Bromodomain testis-specific protein (Homo sapiens, UniProt Q58F21)
Description: Binding affinity to recombinant human N-terminal hexaHis-tagged BRDT expressed in Escherichia coli BL21 (DE3) cells assessed as change in melting temperature by DSF assay

[4] = target: T1, Bromodomain-containing protein 4; test: Binding affinity to recombinant human N-terminal hexaHis-tagged BRD4 expressed in Escherichia coli BL21 (DE3) cells by MST assay
[5] = target: T1, Bromodomain-containing protein 4; test: Binding affinity to recombinant human N-terminal hexaHis-tagged BRD4 expressed in Escherichia coli BL21 (DE3) cells by qPCR assay
HEK-293T = test: Inhibition of cell growth in HEK293T cells incubated for 72 hrs by CellTiter-blue reagent based assay; assay type: functional; details: Homo sapiens
[6] = target: T2, Bromodomain testis-specific protein; test: Binding affinity to recombinant human N-terminal hexaHis-tagged BRDT expressed in Escherichia coli BL21 (DE3) cells by MST assay
[7] = target: T2, Bromodomain testis-specific protein; test: Binding affinity to recombinant human N-terminal hexaHis-tagged BRDT expressed in Escherichia coli BL21 (DE3) cells by qPCR assay
[8] = target: T2, Bromodomain testis-specific protein; test: Binding affinity to recombinant human N-terminal hexaHis-tagged BRDT expressed in Escherichia coli BL21 (DE3) cells by ITC analysis
[9] = target: Serine/threonine-protein kinase PLK1 (Homo sapiens) (UniProt P53350); details: MM1.S, dose 30-100 nM, time 6.0 hrs
Sequence of Serine/threonine-protein kinase PLK1 (Homo sapiens) (P53350 whole entry): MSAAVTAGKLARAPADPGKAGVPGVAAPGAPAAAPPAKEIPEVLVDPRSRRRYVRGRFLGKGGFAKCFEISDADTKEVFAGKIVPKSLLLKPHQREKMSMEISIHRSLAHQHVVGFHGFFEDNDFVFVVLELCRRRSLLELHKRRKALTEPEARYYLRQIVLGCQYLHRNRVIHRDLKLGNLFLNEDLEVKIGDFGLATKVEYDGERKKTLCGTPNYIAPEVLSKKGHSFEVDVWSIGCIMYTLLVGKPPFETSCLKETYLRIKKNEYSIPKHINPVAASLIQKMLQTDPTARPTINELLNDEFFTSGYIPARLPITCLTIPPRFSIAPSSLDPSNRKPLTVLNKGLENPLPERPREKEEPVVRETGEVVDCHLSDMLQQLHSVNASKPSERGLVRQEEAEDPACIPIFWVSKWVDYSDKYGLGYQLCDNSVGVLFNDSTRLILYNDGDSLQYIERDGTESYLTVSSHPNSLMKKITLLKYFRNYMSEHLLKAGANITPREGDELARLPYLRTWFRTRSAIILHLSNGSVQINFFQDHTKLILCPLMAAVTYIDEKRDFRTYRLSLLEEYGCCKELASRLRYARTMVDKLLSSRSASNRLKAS

Row | SMILES | IC50 (MM1.S) [nM] | Kd [1] [nM] | ΔTm [2] [°C] | ΔTm [3] [°C] | Kd [4] [nM] | Kd [5] [nM] | IC50 (HEK-293T) [nM] | Kd [6] [nM] | Kd [7] [nM] | Kd [8] [nM] | inhibition [9]
1 | CCOc1cc(C(=O)N2CCC(N3CCN(C)CC3)CC2)ccc1Nc1ncc2c(n1)N(C1CCCC1)c1ccccc1C(=O)N2C | 280 | 213 | 7.3 | 2.3 | 205 | 69 | > 10000 | 1600 | 500 | 2100 | 
2 | Cc1cnc(Nc2ccc(C(=O)NC3CCN(C)CC3)c(F)c2)nc1Nc1ccc(Cl)c(NS(=O)(=O)C(C)(C)C)c1 | 26 | 54 | 13.5 | 11.9 |  | 12 | 140 |  |  | 59 | 
3 | CC[C@@H]1C(=O)N(C)c2cnc(Nc3ccc(C(=O)N[C@H]4CC[C@H](N5CCN(CC6CC6)CC5)CC4)cc3OC)nc2N1C(C)C [VOLASERTIB] | 4.5 | 317 |  | 5 | 169 | 77 | 1.1 | 1030 | 113 | 1700 | Active
4 | CCOc1cc(N2CCC(O)CC2)ccc1Nc1ncc2c(n1)N(C)c1ccccc1C(=O)N2C |  | 735 |  | 2.9 | 800 | 205 | > 10000 | 3500 | 675 | 4200 | 
5 | C[C@@H](Oc1cc(-n2cnc3ccc(CN4CCN(C)CC4)cc32)sc1C(N)=O)c1ccccc1C(F)(F)F |  |  |  |  |  |  |  |  |  |  | Active
6 | COc1cc(C(=O)N2CCC(N3CCN(C)CC3)CC2)ccc1Nc1ncc2c(n1)N(C)c1ccccc1C(=O)N2C | 530 |  |  | 3.8 |  |  | 2800 |  |  |  | inactive
7 | Cc1sc2c(c1C)C(c1ccc(Cl)cc1)=N[C@@H](CC(=O)OC(C)(C)C)c1nnc(C)n1-2 | 33 |  |  |  |  |  |  |  |  |  | inactive
